Data reported in patent publication US20190307820A1, “COMPOSITIONS AND METHODS OF USING STAT1/3 INHIBITORS WITH ONCOLYTIC HERPES VIRUS” (priority 2016, published 2019).

Experiments:
[1] = tested on: oHSV-1 (G207) in BV2 cells; assay: G207 replication in BV2 cells with chemical inhibitors, plaque forming assay; format: cell-based, HSV-1
Protocol: (§1) FIG. 12A contains bar graphs showing the results of BV2 cells that were pre-treated with indicated chemical compounds for 1-2 hours and then infected with oHSV-1 at an MOI of 1. Viruses were harvested after 48 hours of oHSV-1 (G207) and indicated chemical inhibitor treatment.
as §1, with “12F is a” for “12A contains”, “graph” for “graphs”, “treatment. After 48 hours of treatment with oHSV-1 (G207) and C16, viruses were harvested and titrated by plaque forming assay on vero cells.” for “treatment.”
U87 (5×104) alone or U87+microglia co-culture (5×104+5×104) or BV2 microglia cells (5×104) alone were seeded into a 24-well plate. After overnight incubation (to allow the cells to attach), cells were pretreated with indicated concentration of NFkB inhibitor, Bay-11 (Santa Cruz, Canada) or an indicated concentration of imidazolo-oxindole derivative C16 (Milipore, Canada) or vehicle for 1-2 hours. The cells were then infected with oHSV-1 (G207 or HrR3) virus at a MOI of 1 in presence of chemical inhibitors for another 2 days. The viruses were harvested and titrated in vero cells by plaque forming assay in 12-well plates by triplicates.
The effects of a PKR inhibitor (C16), a NFkappaB inhibitor (Bay11), and an iNOS inhibitor (aminoguanidine hydrochloride) were tested on G207 replication in BV2 cells (Example 15). […] To verify that C16-mediated viral gene transcriptional augmentation is not due to deletions in ICP34.5 and/or ICP6 in G207, the effect of C16 on wild type (KOS) and ICP6 mutated (HrR3) HSV-1 infected BV2 cells was also examined. […] Finally, whether C16 can overcome this microglia-mediated suppression of viral replication in glioma cells was examined.

ICP4 = assay: Western blot of ICP4 in HrR3 infected U87 cells; format: cell-based, HSV-1; settings: 0.5 μM, 1 μM and 10 μM nifuroxazide, HrR3 MOI-3, 24 hours
Protocol: (§2) FIGS. 4A-4C show the effect of nifuroxazide on HSV-1 gene expression. (FIG. 4A) U87 cells were treated with HrR3 viruses at a MOI-3 and indicated doses of nifuroxazide. 24 hours post infected, total protein was extracted and subjected to western blot analysis. (FIG. 4B) U87 cells were treated with HrR3 at a MOI-5 and indicated concentration of nifuroxazide for 6 hours. ICP27 mRNA level was detected by RT-qPCR. (FIG. 4C) Relative mRNA level (2^−ΔΔCT) is shown. Data are presented as mean SD, *P<0.05 vs corresponding vehicle treatment.
(§3) In this example, the underlying mechanism of nifuroxazide mediated oHSV-1 replication enhancement was examined. The effect of nifuroxazide on viral immediate early gene, ICP27 and ICP4 expression was established by Western blot analysis.

subcutaneous U87 tumor = assay: Subcutaneous U87 tumor bearing mice, tumor size after nifuroxazide; format: in vivo; settings: injected in the peritoneum, after 7 days treatment
Protocol: FIGS. 1A-1B are graphs that show an anti-tumor effect of nifuroxazide. (FIG. 1A) Cells were treated with indicated concentration of nifuroxazide for 72 hours. Cytotoxicity was measured by using MTT assay. (FIG. 1B) Subcutaneously U87 tumor bearing mice were peritoneally injected with indicated doses of nifuroxazide. Tumor size was measured using calipers at day 7 post nifuroxazide treatment.
In this example, the antitumor effect of nifuroxazide is evaluated in different tumor cells. Cells were treated with nifuroxazide for 72 hours (FIG. 1A). […] To verify the anti-tumor efficacy of nifuroxazide in vivo, animals with subcutaneous U87 tumor implants were injected in the peritoneum with vehicle, 1 mg/kg nifuroxazide and 50 mg/kg nifuroxazide. […] Tumor volume was reduced around 25% and 60% after 7 days treatment with 1 mg/kg nifuroxazide and 50 mg/kg nifuroxazide respectively (FIG. 1B).

ICP27 = assay: Western blot of ICP27 in HrR3 infected U87 cells; format: cell-based, HSV-1; settings: 0.5 μM, 1 μM and 10 μM nifuroxazide, HrR3 MOI-3, 24 hours
Protocol: as §2, §3

[2] = tested on: oHSV-1 (HrR3) in 9L cells; assay: oHSV-1 (HrR3) replication in 9L cells, titrated in vero cells; format: cell-based, HSV-1; settings: HrR3 MOI-0.1, 48 hours
Protocol: FIGS. 2A-2B contain charts that show the effect of nifuroxazide on replication of oHSV-1. (FIG. 2A) Indicated cells were infected with HrR3 viruses at MOI-0.1. Viruses were harvested at 48 hours post-infected and titrated in vero cells. Data are presented as mean SD, *P<0.05 vs corresponding vehicle treatment. (FIG. 2B) U87 or glio cells were treated with HrR3 at a MOI of 1 and indicated concentration of nifuroxazide for 48 hours. Total DNA was extracted and subjected to qPCR to detect HSV-1 using ICP27 primer. nifuroxazide mediated oHSV-1% increase was represented in the figure.
In this example, the effect of nifuroxazide on oHSV-1 anti-tumor efficacy was evaluated. oHSV-1 infected treated glioma cells were incubated with low concentration of nifuroxazide. Replication increased 27- and 40-fold with 0.5 μM nifuroxazide and 10 μM nifuroxazide treated U87 cells respectively. Similarly, virus replication increased 0.8- and 4.7-fold virus in 9L cells treated with 0.5 μM nifuroxazide and 10 μM nifuroxazide respectively (FIG. 2A).

STAT1 = target: T1, STAT1 (Mus musculus, UniProt P42225); assay: Western blot of STAT1 phosphorylation in CT26 cells; format: cell-based; settings: 24 hours
T1 construct: Total protein was extracted after 24 hours and subjected to western blot analysis; endogenous in cells; host or cells: CT26 cells, with or without HrR3 infection
Protocol: FIG. 19A and FIG. 19B, U87 cells (A) or CT26 cells (B) were treated with the indicated concentrations of HrR3 or NF or a combination. Total protein was extracted after 24 hours and subjected to western blot analysis. Band intensity was measured using Image J software and normalized to β-actin. Samples were run in triplicate and data are as means±S.E. Statistically significant differences are indicated by P<0.05 or P<0.01. FIG. 19C, Mice subcutaneously bearing U87 tumors were intratumorally injected with a single dose of HrR3 virus (1×10^6 PFU) and/or peritoneally injected doses of NF as indicated. Tumors were harvested on day 10 post treatment and total protein was extracted from a mouse of each treatment group and subjected to western blot analysis in triplicate. Results are reported as means±S.E.
NF is a known inhibitor of STAT1 and STAT3. To evaluate the underlying molecular mechanism of the anti-tumour effect of the NF and oHSV-1 combination, the STAT1 and STAT3 status in U87 cells (FIG. 19A) and CT26 cells (FIG. 19B) cells was determined after an overnight treatment with NF and oncolytic viruses.

T1 sequence (P42225 whole entry): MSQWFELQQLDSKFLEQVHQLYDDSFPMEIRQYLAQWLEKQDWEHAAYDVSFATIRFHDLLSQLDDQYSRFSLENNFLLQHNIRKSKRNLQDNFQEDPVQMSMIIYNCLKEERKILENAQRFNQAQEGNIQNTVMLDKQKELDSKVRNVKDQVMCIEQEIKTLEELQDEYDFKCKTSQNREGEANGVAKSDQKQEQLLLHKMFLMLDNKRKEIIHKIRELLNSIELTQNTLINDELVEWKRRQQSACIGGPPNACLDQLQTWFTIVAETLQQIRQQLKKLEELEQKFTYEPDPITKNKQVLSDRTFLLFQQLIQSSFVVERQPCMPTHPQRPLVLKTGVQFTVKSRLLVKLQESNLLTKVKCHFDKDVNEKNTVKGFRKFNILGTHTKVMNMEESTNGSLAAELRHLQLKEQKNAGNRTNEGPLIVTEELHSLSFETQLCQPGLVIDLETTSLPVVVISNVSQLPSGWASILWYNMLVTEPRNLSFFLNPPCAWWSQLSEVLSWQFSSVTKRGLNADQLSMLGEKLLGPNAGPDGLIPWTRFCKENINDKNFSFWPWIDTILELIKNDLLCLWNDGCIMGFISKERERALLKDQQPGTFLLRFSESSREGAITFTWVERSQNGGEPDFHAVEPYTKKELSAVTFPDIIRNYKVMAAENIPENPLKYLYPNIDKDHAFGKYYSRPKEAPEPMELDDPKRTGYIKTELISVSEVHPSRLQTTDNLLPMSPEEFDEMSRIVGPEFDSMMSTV

SMILES | enhanced the replication ([1]; 1 μM of C16, G207 MOI of 1, 48 hours) | enhanced the replication ([1]; 10 μM of C16, G207 MOI of 1, 48 hours) | ICP4 expression (ICP4) | Tumor volume was reduced (subcutaneous U87 tumor; 1 mg/kg nifuroxazide) | Tumor volume was reduced (subcutaneous U87 tumor; 50 mg/kg nifuroxazide) | ICP27 expression (ICP27) | virus replication increased ([2]; 0.5 μM nifuroxazide) | virus replication increased ([2]; 10 μM nifuroxazide) | HrR3 induced upregulation of STAT1 phosphorylation (STAT1) | phosphorylation of STAT1 (STAT1; NF alone)
O=C1Nc2ccc3ncsc3c2/C1=C/c1c[nH]cn1 [C16, 6,8-Dihydro-8-(1H-imidazol-5-ylmethylene)-7H-pyrrolo[2,3-g]benzothiazol-7-one] | 9 times | 8 times |  |  |  |  |  |  |  | 
O=C(N/N=C/c1ccc([N+](=O)[O-])o1)c1ccc(O)cc1 [nifuroxazide, Benzoic acid, 4-hydroxy-, [(5-nitro-2-furanyl)metylene]hydrazide] |  |  | not ICP4 expression | around 25% | ~60% | significantly increases ICP27 expression | 0.8 fold | 4.7 fold | effectively suppressed | dose dependent inhibition
